Measurements from patent US10287298B2, “Nitrogen-containing analogs of salinomycin, synthesis and use against cancer stem cells and malaria” (Centre National de la Recherche Scientifique (CNRS), priority 2014, dated 2019).
Read-outs that look alike come from different tables or passages of the source.

What was measured:
HMLER CD24− cells = assay: Cell viability assay (CellTiter-Blue), IC50 assessment; assay type: cell-based, Human; settings: for IC50: Homo sapiens, read-out: IC50 CD24−
Protocol: FIG. 1 represents viability of HMLER CD24− cells (full line) and HMLER CD24+ cells (dotted line) at different concentration of salinomycine (1A), AM5 […] or AM13 (1D).
Cell viability assay was carried out by plating 1000 cells per well in 96-well plates. NAC (2 mM, A9165 Sigma) or DFO (1 mM) were pretreated 2 hours prior to the compound treatment. CellTiter-Blue® Reagent (Promega; G3582) (20 μl/well) was added after 24, 48, or 72 hours treatment and cells were incubated for 1 hour before recording fluorescence (560(20)Ex/590(10)Em) using a Perkin Elmer Wallac 1420 Victor2 Microplate Reader.

BT20 = assay: Cell death IC50, Annexin V-FITC/PI flow cytometry; assay type: cell-based; settings: Homo sapiens, read-out: IC50 BT20
Protocol: (§1) The cells were seeded in a 6-well plate at density 5.105 cells/well and cultured overnight. The cells were then treated with various concentration (15, 30, 100, 500, 1000 and 10.000 nM) of salinomycine, AM5 and AM23 for 72 h, 96 h and 108 h. After treatment, cell death was quantified using Annexin V-FITC/Propidium Iodide (PI) assay according to the manufacturer's protocol (FITC Annexin V Apoptosis Detection Kit II, 556570, BD Pharmingen™) and analyzed by a LSRFortessa™ flow cytometer (BD Bioscience, San Jose, Calif.). The data were processed using Cell Quest software (BD Biosciences). Dose-response cell death curves were determined for indicated time.
(§2) For tumor cells, the cells are classified in function of their sensitivity of drugs. Here, the most sensitive cells are incubated for 72 h, the middle sensitive cells for 96 h and the less sensitive or resistant cells are incubated for 108 h with drug at several concentrations.
(§3) Concentrations of 30 nM, 500 nm and 1 μM were used for determining the IC50 of drugs.
(§4) Intervals][…]] mean that IC50 is included in this interval with exclusion of the valor 30 nM.

BT474 = assay: Cell death IC50, Annexin V-FITC/PI flow cytometry; assay type: cell-based; settings: Homo sapiens, read-out: IC50 BT474
Protocol: as §1, §2, §3, §4

BT549 = assay: Cell death IC50, Annexin V-FITC/PI flow cytometry; assay type: cell-based; settings: Homo sapiens, read-out: IC50 BT549
Protocol: as §1, §2, §3, §4

HBL100 = assay: Cell death IC50, Annexin V-FITC/PI flow cytometry; assay type: cell-based; settings: Homo sapiens
Protocol: as §1, §2, §3, §4

HMLE W2 = assay: Cell death IC50, Annexin V-FITC/PI flow cytometry; assay type: cell-based; settings: Homo sapiens, read-out: IC50 HMLE W2
Protocol: as §1, §2, §3, §4

HMLER CD24low = assay: Cell death IC50, Annexin V-FITC/PI flow cytometry; assay type: cell-based; settings: Homo sapiens, read-out: IC50 HMLER CD24low
Protocol: as §1, §2, §3, §4

HMLER GFP = assay: Cell death IC50, Annexin V-FITC/PI flow cytometry; assay type: cell-based; settings: Homo sapiens; 1rst sensibility (72 h)
Protocol: as §1, §2, §3, §4

HMLER ID2 = assay: Cell death IC50, Annexin V-FITC/PI flow cytometry; assay type: cell-based; settings: Homo sapiens, read-out: IC50 HMLER ID2
Protocol: as §1, §2, §3, §4

HMLER shECAD = assay: Cell death IC50, Annexin V-FITC/PI flow cytometry; assay type: cell-based; settings: Homo sapiens, read-out: IC50 HMLER shECAD
Protocol: as §1, §2, §3, §4

MCF-7 = assay: Cell death IC50, Annexin V-FITC/PI flow cytometry; assay type: cell-based; settings: Homo sapiens, read-out: IC50 MCF-7
Protocol: as §1, §2, §3, §4

MDA-MB-134 = assay: Cell death IC50, Annexin V-FITC/PI flow cytometry; assay type: cell-based; settings: Homo sapiens, read-out: IC50 MDA-MB-134
Protocol: as §1, §2, §3, §4

MDA-MB-231 = assay: Cell death IC50, Annexin V-FITC/PI flow cytometry; assay type: cell-based; settings: Homo sapiens, read-out: IC50 MDA-MB-231
Protocol: as §1, §2, §3, §4

MDA-MB-361 = assay: Cell death IC50, Annexin V-FITC/PI flow cytometry; assay type: cell-based; settings: Homo sapiens, read-out: IC50 MDA-MB-361
Protocol: as §1, §2, §3, §4

MDA-MD-157 = assay: Cell death IC50, Annexin V-FITC/PI flow cytometry; assay type: cell-based; settings: Homo sapiens, read-out: IC50 MDA-MD-157
Protocol: as §1, §2, §3, §4

T47D = assay: Cell death IC50, Annexin V-FITC/PI flow cytometry; assay type: cell-based; settings: Homo sapiens, Resistant (108 h)
Protocol: as §1, §2, §3, §4

Zr75.1 = assay: Cell death IC50, Annexin V-FITC/PI flow cytometry; assay type: cell-based; settings: Homo sapiens, read-out: IC50 Zr75.1
Protocol: as §1, §2, §3, §4

Cell lines = assay: Apoptosis by Annexin V-FITC and PI staining with or without NAC; assay type: cell-based; settings: 500 nM, 48 h
Protocol: FIG. 5: Salinomycine analogue—induced cell death is inhibited by the ROS scavenger N-acetylcysteine (NAC). Cell lines were incubated with or without 500 nM of Sal analogues for 48 h. Apoptosis was evaluated by Annexin V-FITC and PI staining, and FACS analysis. All data are expressed as means±s.d. from three individual experiments (*; P<0.05)
Salinomycine analogue-induced cell death is inhibited by the ROS scavenger N-acetylcysteine (NAC). Cell lines were incubated with or without 500 nM of Sal analogues for 48 h. Apoptosis was evaluated by AnnexinV-FITC and PI staining, and FACS analysis.

MDA-MB-231 cells = assay: Dead cells by DIOC6(3)/DAPI test with cathepsine B inhibitor; assay type: cell-based, Human; settings: 500 nM; COA74-Me 30 μM; 48 h, 96 h, 108 h
Protocol: From the treatment, dead cells were assessed by DIOC6(3)/DAPI test and analyzed by flow cytometry.

In the case of `C#CCN[C@@H]1C=C[C@]2(O[C@H]([C@@H](CC)C(=O)[C@@H](C)[C@@H](O)[C@H](C)C3O[C@@H](C(CC)C(=O)O)CC[C@@H]3C)[C@@H](C)C[C@H]2C)O[C@@]12CC[C@@](C)([C@H]1CC[C@](O)(CC)[C@H](C)O1)O2` (stereo partly drawn) [AM5, Sal-Propargylamine], the IC50 (HMLER CD24− cells; HMLER CD24− cells, cell viability) is reported as 84.9 nM, the “activity against CD24 cells compared with salinomycine” value (HMLER CD24− cells; comparison of the IC50 results) is reported as “significantly improved activity” and the IC50 (BT20; BT-20, 3rd sensibility (108 h)) is reported as 30 to 500 nM. For the same molecule, the IC50 (BT474; BT-474, 2nd sensibility (96 h)) was greater than 1000 nM, the IC50 (BT549; BT-549, Resistant (108 h)) was greater than 1000 nM and the IC50 (HBL100; HBL-100, No tumoral, read-out: IC50 HBL100) was greater than 1000 nM. For the same molecule, the IC50 (HMLE W2; Immortalized) was greater than 1000 nM, the IC50 (HMLER CD24low; 1rst sensibility (72 h)) was less than 30 nM and the IC50 (HMLER GFP) was 1000 nM. For the same molecule, the IC50 (HMLER ID2; 1rst sensibility (72 h)) was greater than 1000 nM, the IC50 (HMLER shECAD; 1rst sensibility (72 h)) was 30 to 500 nM and the IC50 (MCF-7; MCF7, 1rst sensibility (72 h), ]30-500] excludes 30 nM) was 30 to 500 nM. For the same molecule, the IC50 (MDA-MB-134; 2nd sensibility (96 h)) was 30 to 500 nM, the IC50 (MDA-MB-231; MDA-MB-231, 2nd sensibility (96 h)) was greater than 1000 nM and the IC50 (MDA-MB-361; MDA-MB-361, 2nd sensibility (96 h)) was 500 nM. The IC50 (MDA-MD-157; 2nd sensibility (96 h)) was 500 nM, the IC50 (T47D) was greater than 1000 nM and the IC50 (Zr75.1; ZR-75-1, 1rst sensibility (72 h), ]30-500] excludes 30 nM) was 30 to 500 nM. For the same molecule, the “cell death (apoptosis) mechanism” value (Cell lines) was “induce cell death through lysosomal ROS production” and the “death of MDA-MB-231 cells in combination with cathepsine B inhibition” value (MDA-MB-231 cells) was “combine themselves to induce the death”.
Molecule `CCC(C(=O)O)[C@H]1CC[C@H](C)C([C@@H](C)[C@H](O)[C@H](C)C(=O)[C@H](CC)[C@H]2O[C@]3(C=C[C@@H](O)[C@]4(CC[C@@](C)([C@H]5CC[C@](O)(CC)[C@H](C)O5)O4)O3)[C@H](C)C[C@@H]2C)O1` (stereo partly drawn) [Salinomycine, Salinomycin] has an IC50 (HMLER CD24− cells) of 1560 nM, an IC50 (BT20; BT-20, 108 h) of 500 nM and an IC50 (BT474; BT-474, 96 h) greater than 1000 nM. The IC50 (BT549; BT-549, 108 h) was greater than 1000 nM, the IC50 (HBL100; HBL-100, read-out: IC50 HBL100) was greater than 1000 nM and the IC50 (HMLE W2) was greater than 1000 nM. It also gave an IC50 (HMLER CD24low; 72 h) of 30 to 500 nM, an IC50 (HMLER GFP) of 1000 nM and an IC50 (HMLER ID2; 72 h) greater than 1000 nM. The IC50 (HMLER shECAD; 72 h) was 30 to 500 nM, the IC50 (MCF-7; MCF7, 72 h) was 30 to 500 nM and the IC50 (MDA-MB-134; 96 h) was 30 to 500 nM. It also gave an IC50 (MDA-MB-231; MDA-MB-231, 96 h) greater than 1000 nM, an IC50 (MDA-MB-361; MDA-MB-361, 96 h) of 500 nM and an IC50 (MDA-MD-157; 96 h) of 1000 nM. For the same molecule, the IC50 (T47D) was greater than 1000 nM, the IC50 (Zr75.1; ZR-75-1, 72 h) was 500 nM and the “cell death (apoptosis) mechanism” value (Cell lines) was “induce cell death through lysosomal ROS production”. For the same molecule, the “death of MDA-MB-231 cells in combination with cathepsine B inhibition” value (MDA-MB-231 cells) was “combine themselves to induce the death”.
